In general, pIC50 refers to the IC50 on a negative log10 scale, so that one unit is a factor of ten.

pIC50: −log10 of the molar value.

Chain of recombinant human MGAT2 (Q3SYC2 whole entry): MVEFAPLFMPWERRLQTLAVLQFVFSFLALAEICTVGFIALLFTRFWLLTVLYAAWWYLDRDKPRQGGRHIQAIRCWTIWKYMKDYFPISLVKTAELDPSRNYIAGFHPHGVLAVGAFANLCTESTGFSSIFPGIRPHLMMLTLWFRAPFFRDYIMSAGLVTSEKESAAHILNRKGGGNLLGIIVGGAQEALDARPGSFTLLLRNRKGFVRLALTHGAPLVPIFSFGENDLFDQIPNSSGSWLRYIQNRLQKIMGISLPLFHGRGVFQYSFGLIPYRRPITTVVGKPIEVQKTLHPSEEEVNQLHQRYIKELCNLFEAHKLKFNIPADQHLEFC

The target of one data set is recombinant human MGAT2 (Homo sapiens (Human), UniProt Q3SYC2). As to the kind of experiment: Measurement of human MGAT2 inhibitory activity. Format: biochemical. To be noted: concentration exhibiting 50% enzyme inhibition; recombinant human MGAT2, 2-Oleoylglycerol/Oleoyl-CoA. How it is done:
A full-length human MGAT2 gene to which a Flag-tag had been added at the N-terminal was inserted into pFastBac (from Invitrogen). A recombinant baculovirus was produced in accordance with the protocol for a Bac-to-Bac baculovirus expression system (produced by Invitrogen), and Sf-9 cells were infected therewith. The cells were collected and sonicated, and then the membrane fraction was collected through centrifugation. Western blotting analysis with an anti-Flag antibody was performed for the membrane fraction to confirm expression, and the membrane fraction was used as a recombinant human MGAT2 enzyme solution.
Solutions of the compounds of the present invention in DMSO were each aliquoted into 0.2-μL portions in a 384-well polystyrene microplate produced by Corning Incorporated, and 5 μL of an enzyme solution prepared with an assay buffer (100 mmol/L phosphate buffer (pH 7.4) containing 2 mmol/L DTT) and 5 μL of a substrate solution (100 mmol/L phosphate buffer (pH 7.4), 30 μmol/L 2-Oleoylglycerol, 10 μmol/L Oleoyl-CoA) were added thereto, and the resultant was stirred and centrifuged, and incubated in a moist chamber at room temperature for 1 hour. After enzymatic reaction, 50 μL of a quenching solution (containing 0.2 μmol/L Diolein-d5, 0.4% formic acid, and 50% isopropanol) containing Internal Standard (IS) was added to terminate the reaction, and the resultant was sealed in a plate produced by Shimadzu GLC Ltd., and then stirred and centrifuged, and measurement was performed by using an electrospray ionization method with a RapidFire360 and Agilent 6550 Q-TOF mass spectrometer. Diolein as a reaction product (P) of 2-Oleoylglycerol as the substrate and an ammonium adduct ion of the IS were detected, and the peak intensity ratio, P/IS, was calculated from the peak heights to evaluate the inhibitory activity. Inhibitory activities with/without addition of enzyme were defined as Control (+)/Control (−), respectively, and the respective % inhibitions were defined as 0% inhibition and 100% inhibition. The inhibitory activity was calculated from formula below with TIBCO Spotfire (produced by TIBCO Software Inc.)
Inhibitory activity (%)=[1−{Sample−Control (−)}/{Control (+)−Control (−)}]*100 where Sample indicates a peak intensity ratio: P/IS, when the compound of the present invention was added.
As for `N#Cc1ccc(-c2nn3c(c2NC(=O)c2ccno2)C(=O)N[C@@]2(CCc4cc(OCC(F)(F)F)ccc42)C3)nc1` [Compound I-13], the pIC50 is 8.71.

As for `CS(=O)(=O)CC(=O)Nc1c(-c2ccc(F)cc2)nn2c1C(=O)NC1(CN(c3ccc(C(F)(F)F)cc3)C1)C2` [Compound I-61], the pIC50 was 8.85.

Regarding `CS(=O)(=O)CC(=O)Nc1c(-c2ccc(S(C)(=O)=O)cc2)nn2c1C(=O)N[C@]1(CCc3cc(OCC(F)(F)F)ccc31)C2` [Compound I-96], the pIC50 is 6.68.

Consider `CC(C)c1ccc(-c2nn3c(c2NC(=O)CS(C)(=O)=O)C(=O)N[C@]2(CCc4cc(OCC(F)(F)F)ccc42)C3)cc1` [Compound I-97], for which the pIC50 was 8.45.

As for `CS(=O)(=O)CC(=O)Nc1c(-c2cc(F)cc(F)c2)nn2c1C(=O)N[C@]1(CCc3cc(OCC(F)(F)F)ccc31)C2` [Compound I-98], the pIC50 is 8.67.

Regarding `CS(=O)(=O)CC(=O)Nc1c(-c2ccc(C#N)c(F)c2)nn2c1C(=O)N[C@]1(CCc3cc(OCC(F)(F)F)ccc31)C2` [Compound I-99], the pIC50 is 8.89.

Take `COc1ccc(-c2nn3c(c2NC(=O)CS(C)(=O)=O)C(=O)N[C@]2(CCc4cc(OCC(F)(F)F)ccc42)C3)cc1F` [Compound I-100]: the pIC50 was 8.34.

Take `Cc1c(F)cc(-c2nn3c(c2NC(=O)CS(C)(=O)=O)C(=O)N[C@]2(CCc4cc(OCC(F)(F)F)ccc42)C3)cc1F` [Compound I-101]: the negative logarithm of the IC50 (pIC50) is 8.87.

With `CS(=O)(=O)CC(=O)Nc1c(CCC(F)(F)F)nn2c1C(=O)N[C@]1(CCc3cc(OCC(F)(F)F)ccc31)C2` [Compound I-102], the pIC50 was 8.25.

Turning to `CCOc1ccc2c(c1)CC[C@]21Cn2nc(CCC3CC3)c(NC(=O)CS(C)(=O)=O)c2C(=O)N1` [Compound I-103], the pIC50 is 8.15.

As for `CCCCCc1nn2c(c1NC(=O)CS(C)(=O)=O)C(=O)N[C@@]1(CCc3cc(OCC)ccc31)C2` [Compound I-104], the pIC50 was 7.61.

As to `CS(=N)(=O)CC(=O)Nc1c(-c2ccc(F)c(F)c2)nn2c1C(=O)N[C@@]1(CCc3cc(OCC(F)(F)F)ccc31)C2` (some centres unmarked) [Compound I-108], the pIC50 is 8.46.

As to `CS(=O)(=O)CC(=O)Nc1c(CCC2CC2)nn2c1C(=O)N[C@@]1(CCOc3cc(OCC(F)(F)F)ccc31)C2` [Compound I-109], the pIC50 was 8.93.

In the case of `CS(=O)(=O)CC(=O)Nc1c(CCC2CC2)nn2c1C(=O)N[C@]1(CCOc3cc(OCC(F)(F)F)ccc31)C2` [Compound I-110], the pIC50 is 8.67.

Turning to `CCOc1ccc2c(c1)CC[C@@]21Cn2nc(CCC3CC3)c(NC(=O)CS(C)(=O)=O)c2C(=O)N1` [Compound I-111], the negative logarithm of the IC50 (pIC50) is 8.12.

Consider `CS(=N)(=O)CC(=O)Nc1c(-c2ccc(C(F)(F)F)cc2)nn2c1C(=O)N[C@@]1(CCc3cc(OCC(F)(F)F)ccc31)C2` (some centres unmarked) [Compound I-112], for which the negative logarithm of the IC50 (pIC50) was 8.40.

Consider `CCCCCc1nn2c(c1NC(=O)CS(C)(=O)=O)C(=O)N[C@@]1(CCOc3cc(OCC(F)(F)F)ccc31)C2` [Compound I-113], for which the pIC50 is 8.80.

Consider `CCCCCc1nn2c(c1NC(=O)CS(C)(=O)=O)C(=O)N[C@]1(CCOc3cc(OCC(F)(F)F)ccc31)C2` [Compound I-114], for which the negative-log IC50 (pIC50) is 8.51.

Turning to `CCCCCc1nn2c(c1NC(=O)CS(C)(=O)=O)C(=O)N[C@]1(CCc3cc(OCC)ccc31)C2` [Compound I-115], the pIC50 was 7.84.

Consider `CCOc1ccc2c(c1)CC[C@]21Cn2nc(-c3ccc(F)cc3)c(NC(=O)CS(C)(=O)=O)c2C(=O)N1` [Compound I-116], for which the pIC50 is 8.17.

Consider `CCOc1ccc2c(c1)CC[C@]21Cn2nc(-c3ccc(F)c(F)c3)c(NC(=O)CS(C)(=O)=O)c2C(=O)N1` [Compound I-117], for which the pIC50 was 8.32.

For the compound `CCS(=O)(=O)CC(=O)Nc1c(-c2ccc(F)cn2)nn2c1C(=O)N[C@@]1(CCOc3cc(F)cc(F)c31)C2` [Compound I-118], the pIC50 was 8.42.

With `CS(=O)(=O)CC(=O)Nc1c(-c2ccc(F)cn2)nn2c1C(=O)N[C@@]1(CCOc3cc(F)cc(F)c31)C2` [Compound I-119], the pIC50 is 8.53.

On to `CS(=O)(=O)CC(=O)Nc1c(CCC2CC2)nn2c1C(=O)N[C@@]1(CCOc3cc(F)cc(F)c31)C2` [Compound I-120], for which the pIC50 was 8.59.

As for `CS(=O)(=O)CC(=O)Nc1c(-c2ccc(F)cn2)nn2c1C(=O)N[C@@]1(CCc3cc(F)cc(F)c31)C2` [Compound I-121], the negative-log IC50 (pIC50) was 8.22.

For `CCS(=O)(=O)CC(=O)Nc1c(-c2ccc(C)cn2)nn2c1C(=O)N[C@@]1(CCc3cc(F)cc(F)c31)C2` [Compound I-122], the pIC50 is 7.67.

In the case of `CS(=O)(=O)CC(=O)Nc1c(-c2ccc(F)cc2)nn2c1C(=O)N[C@@]1(CCOc3cc(F)cc(F)c31)C2` [Compound I-125], the pIC50 was 8.55.

On to `CCS(=O)(=O)CC(=O)Nc1c(-c2ccc(C)cn2)nn2c1C(=O)N[C@@]1(CCc3cc(OCC(F)(F)F)ccc31)C2` [Compound I-127], for which the pIC50 is 8.56.

On to `Cc1ccc(-c2nn3c(c2NC(=O)CS(=O)(=O)N(C)C)C(=O)N[C@@]2(CCc4cc(OCC(F)(F)F)ccc42)C3)nc1` [Compound I-128], for which the pIC50 was 7.04.

With `CS(=O)(=O)CC(=O)Nc1c(-c2ccc(F)cc2)nn2c1C(=O)N[C@@]1(CCc3cc(F)cc(F)c31)C2` [Compound I-129], the pIC50 was 8.00.

On to `CS(=O)(=O)CC(=O)Nc1c(-c2ccc(C(F)F)cc2)nn2c1C(=O)N[C@@]1(CCc3cc(F)cc(F)c31)C2` [Compound I-131], for which the pIC50 was 8.03.

As for `CCOc1ccc2c(c1)OCC[C@]21Cn2nc(-c3ccc(F)cc3)c(NC(=O)CS(C)(=O)=O)c2C(=O)N1` [Compound I-132], the pIC50 was 8.51.

As to `CCOc1ccc2c(c1)OCC[C@@]21Cn2nc(-c3ccc(F)cc3)c(NC(=O)CS(C)(=O)=O)c2C(=O)N1` [Compound I-134], the pIC50 was 8.35.

Regarding `CCOc1ccc2c(c1)OCC[C@@]21Cn2nc(-c3ccc(F)c(F)c3)c(NC(=O)CS(C)(=O)=O)c2C(=O)N1` [Compound I-135], the pIC50 was 8.49.

Turning to `CS(=O)(=O)CC(=O)Nc1c(-c2ccc(Cl)c(F)c2)nn2c1C(=O)N[C@@]1(CCc3cc(F)cc(F)c31)C2` [Compound I-138], the pIC50 was 8.45.

On to `CS(=O)(=O)CC(=O)Nc1c(CCC2CC2)nn2c1C(=O)N[C@@]1(CCc3cc(F)cc(F)c31)C2` [Compound I-140], for which the pIC50 was 7.95.

In the case of `CS(=O)(=O)CC(=O)Nc1c(-c2ccc(Cl)c(F)c2)nn2c1C(=O)N[C@@]1(CCOc3cc(F)cc(F)c31)C2` [Compound I-144], the pIC50 was 8.85.

As to `CS(=O)(=O)CC(=O)Nc1c(-c2ccc(F)cn2)nn2c1C(=O)N[C@]1(CCc3cc(F)cc(F)c31)C2` [Compound I-146], the pIC50 was 8.01.

Consider `CS(=O)(=O)CC(=O)Nc1c(-c2ccc(F)c(F)c2)nn2c1C(=O)N[C@]1(CCc3cc(F)cc(F)c31)C2` [Compound I-148], for which the pIC50 is 7.97.

Regarding `CS(=O)(=O)CC(=O)Nc1c(CCC2CC2)nn2c1C(=O)N[C@]1(CCc3cc(F)cc(F)c31)C2` [Compound I-149], the pIC50 was 7.63.

`CS(=O)(=O)CC(=O)Nc1c(-c2ccc(F)cn2)nn2c1C(=O)N[C@]1(CCOc3cc(F)cc(F)c31)C2` [Compound I-150]: the pIC50 is 7.95.

For the compound `CS(=O)(=O)CC(=O)Nc1c(-c2ccc(F)c(F)c2)nn2c1C(=O)N[C@]1(CCOc3cc(F)cc(F)c31)C2` [Compound I-152], the negative-log IC50 (pIC50) was 8.08.

Test system in the next data set: not listed separately
As to the kind of experiment: Metabolism stability test (human liver microsomes). The note with it: compound concentration 0.5 μmol/L, 37° C., 30 minutes, NADPH. Type of data set: in vitro ADME. As to the method:
Using commercially available pooled human hepatic microsomes, the compound of the present invention was reacted for a constant time, a remaining rate was calculated by comparing a reacted sample and an unreacted sample, thereby, a degree of metabolism of the compound of the present invention in liver was assessed.
A reaction was performed (oxidative reaction) at 37° C. for 0 minute or 30 minutes in the presence of 1 mmol/L NADPH in 0.2 mL of a buffer (50 mmol/L Tris-HCl pH 7.4, 150 mmol/L potassium chloride, 10 mmol/L magnesium chloride) containing 0.5 mg protein/mL of human liver microsomes. After the reaction, 50 μL of the reaction solution was added to 100 μL of a methanol/acetonitrile=1/1 (v/v) solution, mixed and centrifuged at 3000 rpm for 15 minutes. The compound of the present invention in the supernatant was quantified by LC/MS/MS, and a remaining amount of the compound of the present invention after the reaction was calculated, letting a compound amount at 0 minute reaction time to be 100%.
The compound `N#Cc1ccc(-c2nn3c(c2NC(=O)c2ccno2)C(=O)N[C@@]2(CCc4cc(OCC(F)(F)F)ccc42)C3)nc1` [Compound I-13] gave a Remaining rate of 76%.

On to `CS(=O)(=O)CC(=O)Nc1c(-c2ccc(F)cc2)nn2c1C(=O)NC1(CN(c3ccc(C(F)(F)F)cc3)C1)C2` [Compound I-61], for which the Remaining rate is recorded as 95.6%.

The values above are taken from patent publication US12227509B2, “Dihydropyrazolopyrazinone derivative having MGAT2 inhibitory activity” (Shionogi & Co., Ltd., priority 2019, dated 2025).
